Results from patent publication US20260315452A1, “PROTEASE INHIBITORS AND USES THEREOF” (priority 2023, published 2026).
pEC50, pIC50: −log10 of the molar value. Counter-ions that a name gives are not always drawn.

Key:
[1] = target: SARS-CoV-2 3CLpro (Severe acute respiratory syndrome coronavirus 2, UniProt P0DTD1); assay: biochemical; details: inhibition of SARS-CoV-2 3CLpro; 15 nM 3CLpro, 25 μM fluorogenic substrate, 37° C.; read-out: Inhibitory Activity (IC50)
[2] = tested on: SARS-CoV-2; assay: Anti-SARS-CoV-2 activity in A549 cells expressing the human ACE2 receptor (inhibition of SARS-CoV-2 replication); type: cell-based; details: for pEC50: Severe acute respiratory syndrome coronavirus 2, A549-ACE2, 24 h, read-out: Antiviral Activity (EC50); for antiviral potency in A549 cells in comparison with compound Ref-2: versus Ref-2 (FIG. 7)

Row | Structure (SMILES) | pIC50 [1] | pEC50 [2] | antiviral potency in A549 cells in comparison with compound Ref-2 [2]
1 | O=C(NC1(C(F)(F)F)CC1)c1cc(Br)cc([N+](=O)[O-])c1N[C@@H]1CCCC[C@@H]1NC(=O)c1cncc2ccccc12 [Compound 16, N-((1S, 2R)-2-((4-bromo-2-nitro-6-((1-(trifluoromethyl)cyclopropyl)carbamoyl)phenyl)amino)cyclohexyl)isoquinoline-4-carboxamide] | 6.00 to 7.00 | 5.00 to 6.00 | 
2 | O=C(NC1CC(F)(F)C1)c1cc(Br)cc([N+](=O)[O-])c1N[C@@H]1COCC[C@@H]1NC(=O)c1cncc2ccccc12 [Compound 126, N-((3S, 4S)-3-((4-bromo-2-((3,3-difluorocyclobutyl)carbamoyl)-6-nitrophenyl)amino)tetrahydro-2H-pyran-4-yl)isoquinoline-4-carboxamide] | > 7.00 | > 7.00 | 
3 | O=C(c1cc(Cl)cc([N+](=O)[O-])c1N[C@H]1CN(C(=O)c2cncc3ccccc23)CCC1(F)F)N1CC(O)C1 [Compound 43, (S)-(5-chloro-2-((4,4-difluoro-1-(isoquinoline-4-carbonyl)piperidin-3-yl)amino)-3-nitrophenyl)(3-hydroxyazetidin-1-yl)methanone] | > 7.00 |  | better antiviral potency
4 | CN(C)C(=O)c1cc(Br)cc([N+](=O)[O-])c1N[C@H]1CN(C(=O)c2cncc3ccccc23)CCC1(F)F [Compound 151, (S)-5-bromo-2-((4,4-difluoro-1-(isoquinoline-4-carbonyl)piperidin-3-yl)amino)-N, N-dimethyl-3-nitrobenzamide] | > 7.00 | > 7.00 | better antiviral potency
5 | Cn1cc(NC(=O)c2cc(Cl)cc([N+](=O)[O-])c2N[C@H]2CN(C(=O)c3cncc4ccccc34)CCC2(F)F)cn1 [Compound 41, (S)-5-chloro-2-((4,4-difluoro-1-(isoquinoline-4-carbonyl)piperidin-3-yl)amino)-N-(1-methyl-1H-pyrazol-4-yl)-3-nitrobenzamide] | > 7.00 | > 7.00 | better antiviral potency
6 | CN1CC[C@@H](NC(=O)c2cc(Cl)cc([N+](=O)[O-])c2N[C@H]2CN(C(=O)c3cncc4ccccc34)CCC2(F)F)C1 [Compound 93, 5-chloro-2-(((S)-4,4-difluoro-1-(isoquinoline-4-carbonyl)piperidin-3-yl)amino)-N-(1-methylpyrrolidin-3-yl)-3-nitrobenzamide hydrochloride] | > 7.00 | > 7.00 | 
7 | CC1(NC(=O)c2cc(Br)cc([N+](=O)[O-])c2N[C@H]2CN(C(=O)c3cncc4ccccc34)CCC2(F)F)CC1 [Compound 157, (S)-5-bromo-2-((4,4-difluoro-1-(isoquinoline-4-carbonyl)piperidin-3-yl)amino)-N-(1-methylcyclopropyl)-3-nitrobenzamide] | > 7.00 | > 7.00 | 
8 | CNC(=O)c1cc(Br)cc([N+](=O)[O-])c1N[C@@H]1CCCC[C@@H]1NC(=O)c1cncc(C(F)(F)F)c1 [Compound 72, N-((1S, 2R)-2 ((4-bromo-2-(methylcarbamoyl)-6-nitrophenyl)amino)cyclohexyl)-5-(trifluoromethyl)nicotinamide] | 5.00 to 6.00 | < 5.00 | 
9 | O=C(NC1CC(F)(F)C1)c1cc(Cl)cc(C(F)(F)F)c1N[C@@H]1COCC[C@@H]1NC(=O)c1cncc2ccccc12 [Compound 145, N-((3S, 4S)-3-((4-chloro-2-((3,3-difluorocyclobutyl)carbamoyl)-6-(trifluoromethyl)phenyl)amino)tetrahydro-2H-pyran-4-yl)isoquinoline-4-carboxamide] | 6.00 to 7.00 | 6.00 to 7.00 | 
10 | CC(C)C(Nc1c(C(=O)N[C@H](C)C(F)(F)F)cc(Br)cc1[N+](=O)[O-])C1CN(C(=O)c2cncc3ccccc23)C1 (stereo partly drawn) [Compound 124, 5-bromo-2-((1-(1-(isoquinoline-4-carbonyl)azetidin-3-yl)-2-methylpropyl)amino)-3-nitro-N-((R)-1,1,1-trifluoropropan-2-yl)benzamide] | > 7.00 | > 7.00 | 
11 | CNC1CN(C(=O)c2cc(Br)cc([N+](=O)[O-])c2N[C@H]2CN(C(=O)c3cncc4ccccc34)CCC2(F)F)C1 [Compound 95, (S)-(5-bromo-2-((4,4-difluoro-1-(isoquinoline-4-carbonyl)piperidin-3-yl)amino)-3-nitrophenyl)(3-(methylamino)azetidin-1-yl)methanone hydrochloride] | > 7.00 | > 7.00 | 
12 | CNC(=O)c1cc(Br)cc([N+](=O)[O-])c1N[C@@H]1CCCC[C@@H]1NC(=O)c1cncc2ccc(F)cc12 [Compound 9, N-((1S, 2R)-2-((4-bromo-2-(methylcarbamoyl)-6-nitrophenyl)amino)cyclohexyl)-6-fluoroisoquinoline-4-carboxamide] | > 7.00 | 6.00 to 7.00 | 
13 | C=CCNC(=O)c1cc(Cl)cc([N+](=O)[O-])c1N[C@H]1CN(C(=O)c2cncc3ccccc23)CCC1(F)F [Compound 42, (S)-N-allyl-5-chloro-2-((4,4-difluoro-1-(isoquinoline-4-carbonyl)piperidin-3-yl)amino)-3-nitrobenzamide] | > 7.00 | > 7.00 | 
14 | CNC(=O)c1cc(Br)cc([N+](=O)[O-])c1NC1CCC2(C1)CN(C(=O)c1cncc3ccccc13)C2 (centres unmarked) [Compound 127, 5-bromo-2-((2-(isoquinoline-4-carbonyl)-2-azaspiro[3, 4]octan-6-yl)amino)-N-methyl-3-nitrobenzamide] | 5.00 to 6.00 | < 5.00 | 
15 | O=C(N[C@H]1CCOC1)c1cc(Br)cc([N+](=O)[O-])c1N[C@H]1CN(C(=O)c2cncc3ccccc23)CCC1(F)F [Compound 149, 5-bromo-2-(((S)-4,4-difluoro-1-(isoquinoline-4-carbonyl)piperidin-3-yl)amino)-3-nitro-N-((S)-tetrahydrofuran-3-yl)benzamide] | > 7.00 | > 7.00 | 
16 | O=C(NCC(F)(F)F)c1cc(Cl)cc([N+](=O)[O-])c1N[C@H]1CN(C(=O)c2cncc3ccccc23)CCC1(F)F [Compound 91, (S)-5-chloro-2-((4,4-difluoro-1-(isoquinoline-4-carbonyl)piperidin-3-yl)amino)-3-nitro-N-(2,2,2-trifluoroethyl) benzamide] | > 7.00 | > 7.00 | 
17 | O=C(NC1CC(F)(F)C1)c1cc(Br)cc([N+](=O)[O-])c1N[C@@H]1CCCN(C(=O)c2cncc3ccccc23)C1 [Compound 34, (R)-5-bromo-N-(3,3-difluorocyclobutyl)-2-((1-(isoquinoline-4-carbonyl)piperidin-3-yl)amino)-3-nitrobenzamide] | > 7.00 | > 7.00 | 
18 | CNC(=O)c1cc(Br)cc([N+](=O)[O-])c1N[C@@H]1CCN(C(=O)c2cncc3ccccc23)C1 [Compound 64, (R)-5-bromo-2-((1-(isoquinoline-4-carbonyl)pyrrolidin-3-yl)amino)-N-methyl-3-nitrobenzamide] | 6.00 to 7.00 | 6.00 to 7.00 | 
19 | CNC(=O)c1cc(Br)cc([N+](=O)[O-])c1NC(C(C)C)C1CN(C(=O)c2cncc3ccccc23)C1 (centres unmarked) [Compound 99, 5-bromo-2-((1-(1-(isoquinoline-4-carbonyl)azetidin-3-yl)-2-methylpropyl)amino)-N-methyl-3-nitrobenzamide] | 6.00 to 7.00 | 6.00 to 7.00 | 
20 | O=C(N[C@@H]1CCOC1)c1cc(Br)cc([N+](=O)[O-])c1N[C@H]1CN(C(=O)c2cncc3ccccc23)CCC1(F)F [Compound 37, 5-bromo-2-(((S)-4,4-difluoro-1-(isoquinoline-4-carbonyl)piperidin-3-yl)amino)-3-nitro-N-((R)-tetrahydrofuran-3-yl)benzamide] | > 7.00 | > 7.00 | better antiviral potency
21 | O=C(NC1CC(F)(F)C1)c1cc(Br)cc(C(F)(F)F)c1N[C@@H]1COCC[C@@H]1NC(=O)c1cncc2ccccc12 [Compound 79, N-((3S, 4S)-3-((4-bromo-2-((3,3-difluorocyclobutyl)carbamoyl)-6-(trifluoromethyl)phenyl)amino)tetrahydro-2H-pyran-4-yl)isoquinoline-4-carboxamide] | > 7.00 | 6.00 to 7.00 | 
22 | O=C(NC1CC(F)(F)C1)c1cc(Br)cc(C(F)(F)F)c1N[C@@H]1COCC[C@@H]1NC(=O)c1cncc2cc(F)ccc12 [Compound 80, N-((3S, 4S)-3-((4-bromo-2-((3,3-difluorocyclobutyl)carbamoyl)-6-(trifluoromethyl)phenyl)amino)tetrahydro-2H-pyran-4-yl)-7-fluoroisoquinoline-4-carboxamide] | 6.00 to 7.00 | 6.00 to 7.00 | 
23 | CNC(=O)c1cc(Br)cc([N+](=O)[O-])c1N1CC(F)(F)C2(CCN(C(=O)c3cncc4ccccc34)C2)C1 (centres unmarked) [Compound 67, 5-bromo-2-(4,4-difluoro-7-(isoquinoline-4-carbonyl)-2,7-diazaspiro[4.4]nonan-2-yl)-N-methyl-3-nitrobenzamide] | 6.00 to 7.00 | 6.00 to 7.00 | 
24 | O=C(NC1CC(F)(F)C1)c1cc(Br)cc([N+](=O)[O-])c1N1CCC2(CN(C(=O)c3cncc4ccccc34)CC2(F)F)C1 (centres unmarked) [Compound 27, 5-bromo-2-(9,9-difluoro-7-(isoquinoline-4-carbonyl)-2,7-diazaspiro[4. 4]nonan-2-yl)-N-(3,3-difluorocyclobutyl)-3-nitrobenzamide] | > 7.00 | 6.00 to 7.00 | 
25 | CN(C)C1CN(C(=O)c2cc(Cl)cc([N+](=O)[O-])c2N[C@H]2CN(C(=O)c3cncc4ccccc34)CCC2(F)F)C1 [Compound 94, (S)-(5-chloro-2-((4,4-difluoro-1-(isoquinoline-4-carbonyl)piperidin-3-yl)amino)-3-nitrophenyl)(3-(dimethylamino)azetidin-1-yl)methanone hydrochloride] | > 7.00 | > 7.00 | 
